Source: patent US8846619B2, “Artificial oxygen transport protein” (The Trustees of the University of Pennsylvania, priority 2009, dated 2014)
Residue numbers refer to the chain shown, from its start. Read-outs that look alike come from different tables or passages of the source. Ends that are not written are not given here.

Assays:
[1] = O2 binding kinetics and oxy-ferrous heme formation/stability (stopped-flow; low-temperature CO/O2 ligand exchange); details: for oxy-ferrous heme yield: −15° C., exposed to CO, then illuminated to exchange ligand for O2; for O2 binding / oxy-ferrous heme formation (in words): reduced (ferrous) heme protein with O2; for stabilization of the oxy-ferrous heme: effect of loop configuration
Description: (§1) Predominantly mono-exponential binding kinetics of O2 and CO with the ferrous heme B in Construct 6 were followed spectroscopically in rapid stopped-flow mixing over gas concentrations from 2% to 50% saturation at 15° C. using an Olis RSM 1000 spectrometer (Bogart, Ga.) that scans both the alpha band and Soret band absorptions 1,000 times a second, followed by SVD analysis of the kinetic components. The dissociation rate of the CO complex was determined by competition with ferricyanide using a range of ferricyanide concentrations according to the ferric heme trapping method described previously.
Preparations of ferrous heme synthetic proteins in CO saturated 30% ethylene glycol borate buffer at pH 9.0 were stable to ligand exchange on a timescale of several minutes in the dark at −15° C. This allowed spectra such as those shown in FIG. 2 to be prepared by re-equilibration with O2 or O2/CO gas mixtures, followed by photolysis by halogen lamp illumination for several seconds to initiate rapid O2 binding, as described previously.
In fact, none of the artificial hemes proteins examined above were able to bind this gas stably at room temperature. […] Constructs 2, 3, 4 and 5 all include the glutamate-based helical strain, which weakens the histidine ligation and allows competition from other ligands. By first exposing these heme proteins to CO and then illuminating at a low temperature to initiate ligand exchange for O2, as was done previously with cytochrome oxidase, each formed an oxy-ferrous heme at near 100% yield at −15° C. The probable reason for room temperature instability was the access of water and protons to the heme-binding site, which facilitates electron transfer from ferrous heme to oxygen. This is clear from mutant studies of globins and the relative stability of the oxy-ferrous heme in chemical systems in water-free solvents.

[2] = Heme binding to the constructs; details: two-heme variants, read-out: heme binding affinities
[3] = Hydrogen isotope (H/D) exchange protection by NMR; format: physicochemical; details: pH 7 and 25° C.
Text: To engineer water exclusion, the potentially culpable protein motion was constrained. […] Indeed, Construct 2 could be modified to introduce large-scale syn-anti flipping. To constrain motion, the loops were reconfigured to link the helices across the most mobile interface. This also allowed the loops to be linked into a monomeric “candelabra” structure, further constraining motion (Construct 6 in FIG. 1). NMR confirmed the water-restricting effects of loop reconfiguration and monomerization. Hydrogen isotope (H/D) analysis of hydrogen exchange protection factors of Constructs 4 and 6 at pH 7 and 25° C.

[4] = literature value, cited from earlier work
[5] = literature value, cited from earlier work; remark: listed apart in the source
[6] = Potentiometric titration (oxidation-reduction midpoint potential); format: physicochemical
[7] = CO binding and release kinetics (stopped-flow mixing, flash photolysis, ferricyanide competition); details: stopped-flow with CO
Description: as §1
CO rebinding after photolysis by a frequency-doubled YAG laser at 532 nm, with a ˜1-ns pulse width (FIG. 3C), was multi-exponential, a characteristic signature of human neuroglobins. Detailed analysis of time-resolved spectra in the flash experiments was consistent with a rapid exponential phase due to a change in pentacoordinate heme conformation (FIG. 3B), similar to that reported for myoglobin [46]. […]
Saturation of the observed CO binding rate allowed estimates of the opening and closing rates. […] Table 1 presents the kinetic constants (also shown in FIG. 3A) and equilibrium binding constants that have been determined for Construct 6 and contrasts them with several natural oxygen-binding proteins. […]

[8] = heme B, cited from earlier work
[9] = literature value; cited from earlier work
[10] = not in parentheses, read-out: KdCO
[11] = not in parentheses, read-out: KdO2

Molecule: Construct 3: cystine derivative of SEQ ID NO:7 (CGGGEIWKLHEEFLKKFEELLKLHEERLKKL; also: cystine derivative)
- oxy-ferrous heme yield [1]: ~100%

Molecule: CGGGEIWKQFEEALKKLFAFFFILPFIIMAIAMVHLLFLFGEGL [Construct 15, AP6 with histidines at positions 10 and 21 mutated to phenylalanine]
- Kd ([2]; tighter site): 100 nM
- Kd ([2]; weaker site): 4500 nM

Molecule: Construct 4: cystine derivative of SEQ ID NO:8 (CGGGEIWKQHEEALKKFEEALKQFEELKKL; also: cystine derivative)
- oxy-ferrous heme yield [1]: ~100%
- time to complete water-mediated proton exchange [3]: ≤ 15 min

Molecule: Construct 2: cystine derivative of SEQ ID NO:6 (CGGGELWKLHEELLKKFEELLKLHEERLKKL; also: cystine derivative)
- O2 binding / oxy-ferrous heme formation (in words) [1]: proceeded directly and rapidly to the oxidized form
- oxy-ferrous heme yield [1]: ~100%

Molecule: Ascaris haemoglobin
- kCO off [4]: 0.018 s⁻¹
- kCO on ([4]; not in parentheses): 200000 M⁻¹ s⁻¹
- Kd [4, 10]: 90 nM
- kO2 off [5]: 0.004 s⁻¹
- KdO2/KdCO ([5]; not in parentheses): 0.03
- kO2 on ([5]; not in parentheses): 1.5e+06 M⁻¹ s⁻¹
- Kd [5, 11]: 3 nM

Molecule: Human haemoglobin
- kCO off [4]: 0.009 s⁻¹
- kCO on ([4]; not in parentheses): 2.2e+06 M⁻¹ s⁻¹
- Kd [4, 10]: 4 nM
- kO2 off [5]: 15 s⁻¹
- KdO2/KdCO ([5]; not in parentheses): 190
- kO2 on ([5]; not in parentheses): 1.9e+07 M⁻¹ s⁻¹
- Kd [5, 11]: 770 nM

Molecule: CGGGEIWKQHEEALKKLFAFFFILPFIIMAIAMVFLLFLFGEGL [Construct 13]
- O2 binding / oxy-ferrous heme formation (in words) [1]: able to bind O2
- Kd ([2]; tighter site): 50 to 200 nM
- Kd ([2]; weaker site): 1000 to 4000 nM

Molecule: Myoglobin
- kCO off [4]: 0.019 s⁻¹
- kCO on ([4]; not in parentheses): 500000 M⁻¹ s⁻¹
- Kd [4, 10]: 37 nM
- kO2 off [5]: 12 s⁻¹
- KdO2/KdCO ([5]; not in parentheses): 23
- kO2 on ([5]; not in parentheses): 1.4e+07 M⁻¹ s⁻¹
- Kd [5, 11]: 860 nM

Molecule: Micro-peroxidase
- kCO off [4]: 0.01 s⁻¹
- kCO on ([4]; not in parentheses): 2e+07 M⁻¹ s⁻¹
- Kd [4, 10]: 0.5 nM

Molecule: CGGGEIWKQFEEALKKLFAFHFILPFIIMAIAMVFLLFLFGEGL [Construct 14, AP6 with histidines at positions 10 and 35 mutated to phenylalanine]
- Kd ([2]; tighter site): 200 to 500 nM
- Kd ([2]; weaker site): 1000 to 3000 nM

Molecule: Construct 5: cystine derivative of SEQ ID NO:9 (CGGGEIWKQHEDALQKFEDALNQFEELKQL; also: cystine derivative)
- stabilization of the oxy-ferrous heme [1]: not to be stabilized
- oxy-ferrous heme yield [1]: ~100%

B1: Construct 7: SEQ ID NO:11; single chain four-helix bundle peptide (protein)
chain: GMTPEQIWKQHEDALQKFEDALNQFEELKQLGGSGSGSGGEIWKQHEDALQKFEDALNQFEELKQLGGSGGSGGSGGEIWKQHEDALQKFEDALNQFEELKQLGGSGSGSGGEIWKQHEDALQKFEDALNQFEELKQL
- O2 binding / oxy-ferrous heme formation (in words) [1]: retained the O2 binding functionality of Construct 6

B2: Construct 10: SEQ ID NO:14; single chain four-helix bundle with CXXCH insert, covalently bound heme C (protein)
chain: B1 chain with W43C, Q45C
modifications: covalently bound heme C
- O2 binding / oxy-ferrous heme formation (in words) [1]: bound molecular oxygen
- Em (midpoint potential) ([6]; covalently bound c-type heme, pH 9): −232 mV

B3: Construct 6: cystine derivative of SEQ ID NO:1; four-helix bundle oxygen transport protein (protein)
chain: GEIWKQHEDALQKFEEALNQFEDLKQLGGSGCGSGGEIWKQHEDALQKFEEALNQFEDLKQL
modifications: cystine derivative
notes: four-helix bundle oxygen transport protein
- half time of carboxy-ferrous heme formation [7]: 400 ms
- stability of carboxy-ferrous heme species [7]: indefinitely stable
- O2 on-rate compared with human neuroglobin [1]: ~100 times slower
- net discrimination favoring O2 binding over CO binding [1]: tenfold
- stabilization of the oxy-ferrous heme [1]: stabilized by looping together helices not linked by heme
- persistence of oxy-ferrous heme A before electron transfer ([1]; heme A): about half a minute
- duration of stability of the oxy-ferrous state ([1]; heme B, before electron transfer from ferrous heme to O2): tens of seconds
- O2 binding / oxy-ferrous heme formation (in words) [1]: transformation of the reduced heme to the oxy-ferrous state
- oxidation-reduction midpoint potential at pH 8 (Em8) ([6]; bound heme A, pH 8, versus normal hydrogen electrode (NHE)): −100 mV
- Em8 of bound heme A more positive than heme B ([6]; heme A versus heme B): about 200 mV
- timescale of exchange of core residue backbone amides [3]: several hours
- Kd ([8]; first heme, read-out: dissociation constant (Kd) for binding of the first heme): < 1 nM
- Kd ([8]; second heme, read-out: dissociation constant (Kd) for binding of the second heme): 50 nM

B4: Neuroglobin (protein, UniProt Q9NPG2 1-151, looked up)
Neuroglobin: MERPEPELIRQSWRAVSRSPLEHGTVLFARLFALEPDLLPLFQYNCRQFSSPEDCLSSPEFLDHIRKVMLVIDAAVTNVEDLSSLEEYLASLGRKHRAVGVKLSSFSTVGESLLYMLEKCLGPAFTPATRAAWSQLYGAVVQAMSRGWDGE
- kCO off [4]: 0.014 s⁻¹
- kCO on (apparent) ([4]; in parentheses: apparent): (0.15) μM^−1s^−1
- Kd ([4]; in parentheses: apparent, read-out: KdCO (apparent)): 93 nM
- kCO on ([4]; not in parentheses): 6.5e+07 M⁻¹ s⁻¹
- Kd [4, 10]: 0.21 nM
- kO2 off [5]: 0.8 s⁻¹
- KdO2/KdCO (apparent) ([5]; in parentheses: apparent): (15)
- kO2 on (apparent) ([5]; in parentheses: apparent): (0.56) μM^−1s^−1
- Kd ([5]; in parentheses: apparent, read-out: KdO2 (apparent)): 1400 nM
- kO2 on ([5]; not in parentheses): 2.5e+08 M⁻¹ s⁻¹
- Kd [5, 11]: 3.2 nM
- kHis off [9]: 4.5 s⁻¹
- kHis on [9]: 2,000 s^−1
